Values quoted from earlier work, collected in patent publication US20190000795A1, “Methods of using cannabinoids and/or molecular similars for modulating, waking-up and/or disabling cellular functions involved in causing disease -- reinvigorating metabolism with anandamide, 2-arachidonoylglycerol and similarly acting compounds” (priority 2017, published 2019).
Where two headings read alike, the source gives them in different places.

What was measured:
GPR55 = GPR55 (Homo sapiens, UniProt Q9Y2T6)
Sequence of GPR55 (Q9Y2T6 whole entry, species assumed): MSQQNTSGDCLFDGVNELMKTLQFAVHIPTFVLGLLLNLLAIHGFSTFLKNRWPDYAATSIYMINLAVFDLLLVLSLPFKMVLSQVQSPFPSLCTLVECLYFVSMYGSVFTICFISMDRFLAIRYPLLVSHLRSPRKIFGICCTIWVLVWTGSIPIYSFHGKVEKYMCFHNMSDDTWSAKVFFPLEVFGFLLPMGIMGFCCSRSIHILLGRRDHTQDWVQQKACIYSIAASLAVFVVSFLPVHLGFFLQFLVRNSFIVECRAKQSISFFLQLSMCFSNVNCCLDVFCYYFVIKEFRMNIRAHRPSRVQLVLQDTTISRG

mitochondrion [1] = tested on: mitochondrion
mitochondrion [2] = tested on: mitochondrion; remark: listed apart in the source
Complex 1 = details: for Complex 1 activity, rapid and transient increase: below threshold around 10 μM

| Compound | GPR55 Ca2+ flux activation (GPR55) | O2 consumption at the mitochondrion (mitochondrion [2]) | also measured |
| --- | --- | --- | --- |
| CCCCC/C=C\C/C=C\C/C=C\C/C=C\CCCC(=O)OC(CO)CO [2AG, 2-arachidonoylglycerol] | not | – | – |
| CCCCC/C=C\C/C=C\C/C=C\C/C=C\CCCC(=O)OCCN [O-AEA, O-arachidonoyl ethanolamine] | not | – | body temperature (mice): lowers body temperature |
| CCCCCCC(C)(C)c1cc(O)c2c(c1)OC(C)(C)[C@@H]1CC=C(CO)C[C@@H]21 [HU210] | – | decrease | effect on H2O2 production (mitochondrion [1]; between 2 and 10 μM): increase; threshold concentration of sudden decrease of Complex 1 activity (Complex 1): around 10 μM; Complex 1 activity, rapid and transient increase (Complex 1): 25% |
| CCCn1c(C)c(C(=O)c2cccc3ccccc23)c2ccccc21 [JWH015] | Ca^2+ flux activation | – | – |
| CCCCC/C=C\C/C=C\C/C=C\C/C=C\CCCC(=O)N[C@H](C)CO [methanandamide] | Ca^2+ flux activation | – | – |
| CCCCCc1cc(O)c2c(c1)OC(C)(C)[C@@H]1CCC(C)=C[C@@H]21 [THC, delta-9 tetrahydrocannabinol] | Ca^2+ flux activation | decrease | effect on H2O2 production (mitochondrion [1]; between 2 and 10 μM): increase; Complex 2/3 inhibition, course of effect (Complex 2/3): more steady logarithmic concentration dependent effect; threshold concentration of sudden decrease of Complex 1 activity (Complex 1): around 10 μM; Complex 1 activity, rapid and transient increase (Complex 1): 50% |
| CCCCC/C=C\C/C=C\C/C=C\C/C=C\CCCC(=O)NCCO [AEA, N-arachidonoylethanolamine] | Ca^2+ flux activation | decrease | effect on H2O2 production (mitochondrion [1]): no effect; concentration range of steady logarithmic decline of Complex 1 activity (Complex 1): 5-200 μM |
| CCCCCCC(C)(C)c1ccc([C@@H]2C[C@H](O)CC[C@H]2CCCO)c(O)c1 [CP 55 940] | not | – | – |
| CCCCCCCCCCCCCCCC(=O)NCCO [PEA, palmitoylethanolamide] | not | – | – |
